Measurements: patent US9540391B2, “Isomannide derivatives as inhibitors of soluble epoxide hydrolase” (SANOFI, priority 2013, dated 2017)

Biological target: T1, recombinant sEH (Homo sapiens, UniProt P34913)
T1 construct: made in house; host or cells: Sf9 insect cells
T1 sequence (P34913 1-555): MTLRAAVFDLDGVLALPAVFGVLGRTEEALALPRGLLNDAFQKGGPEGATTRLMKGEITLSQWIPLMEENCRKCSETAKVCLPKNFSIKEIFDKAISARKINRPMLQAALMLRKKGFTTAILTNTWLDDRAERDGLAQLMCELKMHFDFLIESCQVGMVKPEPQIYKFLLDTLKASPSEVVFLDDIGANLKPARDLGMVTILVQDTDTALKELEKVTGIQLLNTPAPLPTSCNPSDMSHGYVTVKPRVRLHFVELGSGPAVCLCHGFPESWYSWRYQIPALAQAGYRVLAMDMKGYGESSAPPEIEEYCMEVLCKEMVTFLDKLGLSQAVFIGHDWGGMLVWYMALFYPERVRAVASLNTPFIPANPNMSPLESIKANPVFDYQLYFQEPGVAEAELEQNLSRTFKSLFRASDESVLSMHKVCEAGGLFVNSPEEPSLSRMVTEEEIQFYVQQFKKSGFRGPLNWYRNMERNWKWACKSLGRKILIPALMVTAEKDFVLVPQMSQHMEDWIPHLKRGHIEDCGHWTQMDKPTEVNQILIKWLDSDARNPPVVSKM
Experiment: biochemical screening assay for inhibition of soluble epoxide hydrolase (fluorometric, Phome substrate)
How it was run: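 Human sEH from Sf9 cells (2 nM final) was pre-incubated 15 min at 30 °C with compound (0.0001–10 μM), then reacted 60 min at 30 °C with 5 μM Phome in 25 mM Hepes/0.01% albumin. Fluorescence of released 6-methoxy-2-naphthaldehyde was read before substrate and at end; IC50 from % inhibition.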

Structure (SMILES)	IC50 [nM]
COc1cc(NC(=O)NC2COC3C(CCc4ccsc4)COC23)cc(OC)c1 [Example 361, 1-(3,5-Dimethoxy-phenyl)-3-[(3S,3aR,-6R)-6-((S)-2-thiophen-3-yl-ethyl)-hexahydro-furo[3,2-b]furan-3-yl]-urea]	39
O=C(NCc1ccc(F)cc1)NC1COC2C(CCc3ccsc3)COC12 [Example 364, 1-(4-Fluoro-benzyl)-3-[(3S,3aR,6R)-6-((S)-2-thiophen-3-yl-ethyl)-hexa-hydro-furo[3,2-b]furan-3-yl]-urea]	29
Cc1cccc(CNC(=O)NC2COC3C(CCc4ccsc4)COC23)c1 [Example 365, 1-(3-Methyl-benzyl)-3-[(3S,3aR,6R)-6-((S)-2-thiophen-3-yl-ethyl)-hexa-hydro-furo[3,2-b]furan-3-yl]-urea]	145
O=C(Nc1cccc(C(F)(F)F)c1)N[C@H]1CO[C@@H]2[C@@H](CCc3ccccc3)CO[C@@H]21 [Example 368, 1-((3S,3aR,6S,6aR)-6-Phenethyl-hexahydro-furo[3,2-b]furan-3-yl)-3-(3-trifluoromethyl-phenyl)-urea]	68
O=C(NCCc1cccs1)N[C@H]1CO[C@@H]2[C@@H](CCc3ccccc3)CO[C@@H]21 [Example 370, 1-((3S,3aR,6S,6aR)-6-Phenethyl-hexahydro-furo[3,2-b]furan-3-yl)-3-(2-thiophen-2-yl-ethyl)-urea]	43
O=C(NCCc1ccccc1)N[C@H]1CO[C@@H]2[C@@H](CCc3ccsc3)CO[C@@H]21 [Example 373, 1-Phenethyl-3-[(3S,3aR,6S,6aR)-6-(2-thiophen-3-yl-ethyl)-hexahydro-furo[3,2-b]furan-3-yl]-urea]	39
O=C(Nc1ccc(OC(F)(F)F)cc1)N[C@H]1CO[C@@H]2[C@@H](CCc3ccsc3)CO[C@@H]21 [Example 374, 1-[(3S,3aR,6S,6aR)-6-(2-Thiophen-3-yl-ethyl)-hexahydro-furo[3,2-b]furan-3-yl]-3-(4-trifluoromethoxy-phenyl)-urea]	235
CCOC(=O)CC[C@H]1CO[C@H]2[C@@H]1OC[C@@H]2NC(=O)NC1CCCCC1 [Example 376, 3-[(3S,3aR,6S,6aR)-6-(3-Cyclohexyl-ureido)-hexahydro-furo[3,2-b]furan-3-yl]-propionic acid ethyl ester]	26
O=C(O)CC[C@H]1CO[C@H]2[C@@H]1OC[C@@H]2NC(=O)NC1CCCCC1 [Example 377, 3-[(3S,3aR,6S,6aR)-6-(3-cyclohexyl-ureido)-hexahydro-furo[3,2-b]furan-3-yl]-propionic acid]	2940
CCCCOc1ccc(NC(=O)NC2COC3C(C#N)COC23)cc1 (centres unmarked) [Example 380]	304
Cc1cc(C)cc(NC(=O)NC2COC3C(C#N)COC23)c1 (centres unmarked) [Example 381]	108
N#CC1COC2C(NC(=O)Nc3ccc(OCc4ccccc4)cc3)COC12 (centres unmarked) [Example 382]	339
Cc1cccc(NC(=O)NC2COC3C(C#N)COC23)c1 (centres unmarked) [Example 383]	694
N#CC1COC2C(NC(=O)Nc3ccc(Cl)c(Cl)c3)COC12 (centres unmarked) [Example 384]	61

Stronger by IC50, values ahead:

IC50 [nM]	Structure (SMILES)
9	Cc1cc(C)cc(NC(=O)NC2COC3C(CCc4ccsc4)COC23)c1 [Example 362, 1-(3,5-Dimethyl-phenyl)-3-[(3S,3aR,6R)-6-((S)-2-thiophen-3-yl-ethyl)-hexahydro-furo[3,2-b]furan-3-yl]-urea]
25	O=C(Nc1ccccc1)NC1COC2C(CCc3ccsc3)COC12 [Example 363, 1-Phenyl-3-[(3S,3aR,6R)-6-((S)-2-thiophen-3-yl-ethyl)-hexahydro-furo[3,2-b]furan-3-yl]-urea]
9	O=C(Nc1ccc(F)cc1)NC1COC2C(CCc3ccsc3)COC12 [Example 366, 1-(4-Fluoro-phenyl)-3-[(3S,3aR,6R)-6-((S)-2-thiophen-3-yl-ethyl)-hexa-hydro-furo[3,2-b]furan-3-yl]-urea]
12	O=C(Nc1ccc2c(c1)CCC2)N[C@H]1CO[C@@H]2[C@@H](CCc3ccsc3)CO[C@@H]21 [Example 367, 1-Indan-5-yl-3-[(3S,3aR,6S,6aR)-6-(2-thiophen-3-yl-ethyl)-hexahydro-furo[3,2-b]furan-3-yl]-urea]
22	O=C(Nc1ccc2c(c1)OCCO2)N[C@H]1CO[C@@H]2[C@@H](CCc3ccccc3)CO[C@@H]21 [Example 369, 1-(2,3-Dihydro-benzo[1,4]dioxin-6-yl)-3-((3S,3aR,6S,6aR)-6-phenethyl-hexahydro-furo[3,2-b]furan-3-yl)-urea]
24	O=C(NCCc1ccccc1)N[C@H]1CO[C@@H]2[C@@H](CCc3ccccc3)CO[C@@H]21 [Example 371, 1-Phenethyl-3-((3S,3aR,6S,6aR)-6-phenethyl-hexahydro-furo[3,2-b]furan-3-yl)-urea]
11	O=C(Nc1ccc(OC(F)(F)F)cc1)N[C@H]1CO[C@@H]2[C@@H](CCc3ccccc3)CO[C@@H]21 [Example 372, 1-((3S,3aR,6S,6aR)-6-Phenethyl-hexahydro-furo[3,2-b]furan-3-yl)-3-(4-trifluoromethoxy-phenyl)-urea]
17	O=C(Nc1cccc(C(F)(F)F)c1)N[C@H]1CO[C@@H]2[C@@H](CCc3ccsc3)CO[C@@H]21 [Example 375, 1-[(3S,3aR,6S,6aR)-6-(2-Thiophen-3-yl-ethyl)-hexahydro-furo[3,2-b]furan-3-yl]-3-(3-trifluoromethyl-phenyl)-urea]
24	N#C[C@H]1CO[C@H]2[C@@H]1OC[C@@H]2NC(=O)Nc1ccc(OC(F)(F)F)cc1 [Example 378, 1-((3S,3aR,6S,6aR)-6-cyano-hexahydro-furo[3,2-b]furan-3-yl)-3-(4-trifluoromethoxy-phenyl)-urea]
